IC50 data for 6 molecules are collected here from patent US20170119776A1, “CHIRAL 2,5-DISUBSTITUTED CYCLOPENTANECARBOXYLIC ACID DERIVATIVES AND USE THEREOF” (BAYER PHARMA AKTIENGESELLSCHAFT, priority 2014, published 2017).

One experiment deals with T1, MMP-2 (Homo sapiens, UniProt P08253).
T1 construct: purchased R&D Systems 902-MP
T1 sequence (P08253 110-660): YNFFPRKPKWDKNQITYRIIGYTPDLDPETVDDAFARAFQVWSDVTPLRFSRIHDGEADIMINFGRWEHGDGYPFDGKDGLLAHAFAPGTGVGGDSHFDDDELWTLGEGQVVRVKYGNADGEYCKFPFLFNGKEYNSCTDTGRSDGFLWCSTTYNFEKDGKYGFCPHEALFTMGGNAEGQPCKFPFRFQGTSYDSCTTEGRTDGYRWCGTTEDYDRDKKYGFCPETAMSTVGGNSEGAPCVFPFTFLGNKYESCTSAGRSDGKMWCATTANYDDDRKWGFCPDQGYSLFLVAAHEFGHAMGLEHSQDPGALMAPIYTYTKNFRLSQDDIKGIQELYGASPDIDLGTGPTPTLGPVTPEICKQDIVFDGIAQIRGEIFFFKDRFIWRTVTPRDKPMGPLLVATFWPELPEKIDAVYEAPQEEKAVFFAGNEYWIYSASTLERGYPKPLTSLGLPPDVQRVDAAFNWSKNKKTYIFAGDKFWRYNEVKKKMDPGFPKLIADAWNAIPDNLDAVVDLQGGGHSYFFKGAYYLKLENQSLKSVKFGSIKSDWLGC
As to the kind of experiment: In vitro MMP-2 inhibition test. It is filed as biochemical. From the text:
(§1) The activity strength of the compounds according to the invention towards other MMPs (and therefore their selectivity) is likewise ascertained in in vitro inhibition tests. The MMP-mediated amidolytic cleavage of a suitable peptide substrate also leads here to a fluorescent light increase. The signal intensity of the fluorescent light is directly proportional to the enzyme activity. The active concentration of a test compound at which half of the enzyme is inhibited (50% signal intensity of the fluorescent light) is given as IC50 value.
Recombinant MMP-2 (R&D Systems, 902-MP) is chemically activated in accordance with the manufacturer's instructions using APMA. 1 μl of the test compound to be analysed (as a solution in DMSO, suitable concentrations e.g. 1 nM to 30 μM) is pipetted into 24 μl of activated enzyme (final concentration e.g. 2 nM) in reaction buffer (50 mM Tris/HCl pH 7.5, 10 mM CaCl2, 150 mM NaCl, 0.05% Brij®-35) in a white 384-hole microtiter plate (MTP). The enzymatic reaction is started by adding the intramolecularly quenched substrate Mca-Pro-Leu-Gly-Leu-Dpa(Dnp)-Ala-Arg-NH2 (final concentration e.g. 10 μM; R&D Systems, ES-001), such that a total test volume of 50 μl results. The progress of the MMP-2 reaction is measured by measuring the fluorescence intensity (excitation 320 nm, emission 410 nm) over a suitable period (e.g. over 120 min at a temperature of 32° C.).
The IC50 values were determined for racemates and enantiomers from differently generated DMSO stock solutions. Whereas an automatically produced DMSO stock solution from the internal substance logistics was used for racemates by means of a standard method, in the case of enantiomers a freshly produced, manually prepared DMSO stock solution was used in each case for a more precise direct comparison of the enantiomers with one another.

The target of a further experiment is T2, MMP-3 of the mouse (Mus musculus, UniProt P28862).
T2 construct: purchased R&D Systems 548-MP
T2 sequence (P28862 100-477): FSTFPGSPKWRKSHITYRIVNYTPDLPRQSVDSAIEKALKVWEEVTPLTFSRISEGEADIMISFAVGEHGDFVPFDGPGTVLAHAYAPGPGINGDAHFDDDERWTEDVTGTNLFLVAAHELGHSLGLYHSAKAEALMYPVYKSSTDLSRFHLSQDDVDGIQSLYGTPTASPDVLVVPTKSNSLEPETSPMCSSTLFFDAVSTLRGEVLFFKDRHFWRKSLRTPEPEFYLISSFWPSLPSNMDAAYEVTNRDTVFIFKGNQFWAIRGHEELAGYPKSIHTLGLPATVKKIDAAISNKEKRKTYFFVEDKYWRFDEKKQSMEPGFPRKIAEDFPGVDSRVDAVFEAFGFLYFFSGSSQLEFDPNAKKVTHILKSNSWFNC
As to the kind of experiment: In vitro MMP-3 inhibition test of the mouse. In kind it is biochemical.
From the text: as §1
Recombinant MMP-3 of the mouse (R&D Systems, 548-MP) is chemically activated in accordance with the manufacturer's instructions using APMA. 1 μl of the test compound to be analysed (as a solution in DMSO, suitable concentrations e.g. 1 nM to 30 μM) is pipetted into 24 μl of activated enzyme (final concentration e.g. 0.5 nM) in reaction buffer (50 mM Tris/HCl pH 7.5, 10 mM CaCl2, 150 mM NaCl, 0.05% Brij®-35) in a white 384-hole microtiter plate (MTP). The enzymatic reaction is started by adding the intramolecularly quenched substrate Mca-Arg-Pro-Lys-Pro-Val-Glu-Nval-Trp-Arg-Lys(Dnp)-NH2 (final concentration e.g. 5 μM; R&D Systems, ES-002), such that a total test volume of 50 μl results. The progress of the MMP-3 reaction is measured by measuring the fluorescence intensity (excitation 320 nm, emission 410 nm) over a suitable period (e.g. over 120 min at a temperature of 32° C.).
Tables 3A and 3B below give the IC50 values from these tests for the inhibition of rodent MMPs for representative embodiment examples of the present invention and also for two structurally related comparison compounds from the prior art (as racemate and separated enantiomer)→(in part as average values from several independent individual determinations and rounded to two significant places). The IC50 values were determined for racemates and enantiomers from differently generated DMSO stock solutions. Whereas an automatically created DMSO stock solution from the internal substance logistics was used for racemates by means of a standard method, in the case of enantiomers, in each case a freshly produced, manually prepared DMSO stock solution was used for a more precise direct comparison of the enantiomers with one another.

As for `O=C(O)[C@H]1[C@H](Cn2nnc3ccccc3c2=O)CC[C@@H]1C(=O)c1ccc(OCc2ccccc2)cc1` [Example 2, (+)-(1S,2S,5R)-2-[4-(Benzyloxy)benzoyl]-5-[(4-oxo-1,2,3-benzotriazin-3(4H)-yl)methyl]cyclopentanecarboxylic acid], the half-maximal inhibitory concentration (IC50) at MMP-2 is 11.8 nM; on MMP-3 of the mouse, 87 nM.

Turning to `O=C(O)[C@@H]1[C@@H](Cn2nnc3ccccc3c2=O)CC[C@H]1C(=O)c1ccc(-c2ccc(Cl)cc2)cc1` (single isomer, unassigned; enantiomer 2) [Comparative Example A-3, (1RS,2RS,5SR)-2-[(4′-Chlorobiphenyl-4-yl)carbonyl]-5-[(4-oxo-1,2,3-benzotriazin-3(4H)-yl)methyl]cyclopentanecarboxylic acid (enantiomer 2)], the 50% inhibitory concentration (IC50) against MMP-2 came to 0.7 nM; at MMP-3 of the mouse, 11.3 nM.

Turning to `CCCCCOc1ccc(C(=O)CC(CCn2nnc3ccccc3c2=O)C(=O)O)cc1` (single isomer, unassigned; enantiomer 1) [Comparative Example B-2, (+)-4-Oxo-2-[2-(4-oxo-1,2,3-benzotriazin-3(4H)-yl)ethyl]-4-[4-(pentyloxy)phenyl]butanoic acid (enantiomer 1)], the IC50 was 120 nM on MMP-2 and 6750 nM at MMP-3 of the mouse.

On to `CCCCCOc1ccc(C(=O)CC(CCn2nnc3ccccc3c2=O)C(=O)O)cc1` (racemic) [Comparative Example B-1, (+/−)-4-Oxo-2-[2-(4-oxo-1,2,3-benzotriazin-3(4H)-yl)ethyl]-4-[4-(pentyloxy)phenyl]butanoic acid (racemate)], for which the IC50 against MMP-2 was 450 nM; on MMP-3 of the mouse, 13000 nM.

Take `O=C(O)[C@H]1[C@H](Cn2nnc3ccccc3c2=O)CC[C@@H]1C(=O)c1ccc(-c2ccc(Cl)cc2)cc1` (racemic) [Comparative Example A-1, (1RS,2RS,5SR)-2-[(4′-chlorobiphenyl-4-yl)carbonyl]-5-[(4-oxo-1,2,3-benzotriazin-3(4H)-yl)methyl]cyclopentanecarboxylic acid (racemate)]: the IC50 turned out to be 1.1 nM on MMP-2 and 17 nM against MMP-3 of the mouse.

As to `O=C(O)[C@H]1[C@H](Cn2nnc3ccccc3c2=O)CC[C@@H]1C(=O)c1ccc(OCc2ccccc2)cc1` (racemic) [Example 1, (+/−)-(1RS,2RS,5SR)-2-[4-(Benzyloxy)benzoyl]-5-[(4-oxo-1,2,3-benzotriazin-3(4H)-yl)methyl]cyclopentanecarboxylic acid (racemate)], the half-inhibitory concentration (IC50) against MMP-2 stood at 18 nM; on MMP-3 of the mouse it was 290 nM.

As usually defined, the IC50 is the concentration that gives 50% inhibition.
